Drawing on ChEMBL document CHEMBL1134160 (Bioorg Med Chem Lett, 2001), this text covers EC50, Efficacy and Ki for seven molecules.

In general, EC50 refers to the concentration giving half of the maximal effect. As a reminder, the Ki is a measure of affinity in units of concentration, obtained from inhibition or displacement.

Assay [1] deals with Neuronal acetylcholine receptor subunit alpha-7 (Homo sapiens, UniProt P36544). Description: Effective concentration that causes inhibition of alpha-7 nAChR, was determined. Values are expressed as EC50 +/- SEM. In kind it is functional.
Assay [2] addresses Neuronal acetylcholine receptor subunit alpha-7 (Mus musculus) (UniProt P49582). Description: Functional activity is expressed as percent efficacy for alpha-7 nAChR.
Assay [3] deals with Serotonin 3 (5-HT3) receptor. Description: In vitro Binding affinity towards 5-hydroxytryptamine 3 receptor was determined. In kind it is protein-complex assay.
In assay [4] the target is Neuronal acetylcholine receptor; alpha4/beta2 (Homo sapiens, UniProt P17787+P43681). The assay can be described thus: In vitro Binding affinity towards Nicotinic acetylcholine receptor alpha4-beta2 was determined. In kind it is protein-complex assay.
Assay [5] deals with Neuronal acetylcholine receptor subunit alpha-7 (Mus musculus, UniProt P49582). Description: In vitro Binding affinity towards alpha-7 nAChR was determined.
Assay [6] deals with T1, Acetylcholine receptor; alpha1/beta1/delta/gamma (Homo sapiens, UniProt P02708+P07510+P11230+Q07001). The assay can be described thus: In vitro Binding affinity towards alpha-1-beta-1-gamma-delta nAChR was determined. In kind it is protein-complex assay.
Assay [7] has as its target T1, Acetylcholine receptor; alpha1/beta1/delta/gamma. Description: In vitro Binding affinity towards alpha-1-beta-1-gamma delta nAChR was determined.

T1 sequence (P02708 whole entry): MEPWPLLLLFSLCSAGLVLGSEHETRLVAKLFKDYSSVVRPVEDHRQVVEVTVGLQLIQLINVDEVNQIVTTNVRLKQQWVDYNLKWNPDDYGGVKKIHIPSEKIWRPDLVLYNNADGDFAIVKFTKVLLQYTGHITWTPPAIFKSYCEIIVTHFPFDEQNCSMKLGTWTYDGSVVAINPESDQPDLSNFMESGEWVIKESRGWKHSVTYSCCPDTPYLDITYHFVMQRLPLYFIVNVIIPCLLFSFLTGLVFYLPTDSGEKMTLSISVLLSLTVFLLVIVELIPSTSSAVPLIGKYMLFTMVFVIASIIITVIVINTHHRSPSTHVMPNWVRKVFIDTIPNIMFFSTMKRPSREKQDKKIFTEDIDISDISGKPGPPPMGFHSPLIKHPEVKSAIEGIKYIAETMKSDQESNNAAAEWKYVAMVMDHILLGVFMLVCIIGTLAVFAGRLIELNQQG
T1 sequence (P07510 whole entry): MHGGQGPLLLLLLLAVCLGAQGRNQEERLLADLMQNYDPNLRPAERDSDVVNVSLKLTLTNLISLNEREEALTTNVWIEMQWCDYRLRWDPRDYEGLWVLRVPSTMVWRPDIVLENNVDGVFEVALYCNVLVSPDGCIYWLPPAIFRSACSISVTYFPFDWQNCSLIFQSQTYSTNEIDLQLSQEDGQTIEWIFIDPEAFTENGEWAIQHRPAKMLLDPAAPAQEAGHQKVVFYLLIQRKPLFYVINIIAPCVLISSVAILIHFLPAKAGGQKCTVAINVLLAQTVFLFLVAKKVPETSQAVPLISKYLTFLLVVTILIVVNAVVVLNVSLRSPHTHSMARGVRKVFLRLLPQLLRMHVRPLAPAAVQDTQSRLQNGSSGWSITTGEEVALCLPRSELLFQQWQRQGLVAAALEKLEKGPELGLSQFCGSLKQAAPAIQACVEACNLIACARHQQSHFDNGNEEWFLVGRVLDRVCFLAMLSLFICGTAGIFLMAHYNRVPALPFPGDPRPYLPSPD
T1 sequence (P11230 whole entry): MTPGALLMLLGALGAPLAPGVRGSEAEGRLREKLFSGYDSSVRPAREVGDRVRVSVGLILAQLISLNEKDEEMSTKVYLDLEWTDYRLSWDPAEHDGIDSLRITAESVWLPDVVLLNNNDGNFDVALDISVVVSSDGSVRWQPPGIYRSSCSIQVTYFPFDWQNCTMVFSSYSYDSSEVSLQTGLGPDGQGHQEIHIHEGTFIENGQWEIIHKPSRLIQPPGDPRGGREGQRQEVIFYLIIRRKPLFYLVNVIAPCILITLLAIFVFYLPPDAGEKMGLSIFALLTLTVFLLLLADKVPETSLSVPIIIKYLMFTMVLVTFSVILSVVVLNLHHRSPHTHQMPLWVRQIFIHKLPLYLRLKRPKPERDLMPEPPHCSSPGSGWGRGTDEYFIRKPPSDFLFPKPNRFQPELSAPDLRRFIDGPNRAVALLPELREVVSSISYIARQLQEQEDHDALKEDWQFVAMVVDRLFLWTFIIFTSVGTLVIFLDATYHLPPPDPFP
T1 sequence (Q07001 whole entry): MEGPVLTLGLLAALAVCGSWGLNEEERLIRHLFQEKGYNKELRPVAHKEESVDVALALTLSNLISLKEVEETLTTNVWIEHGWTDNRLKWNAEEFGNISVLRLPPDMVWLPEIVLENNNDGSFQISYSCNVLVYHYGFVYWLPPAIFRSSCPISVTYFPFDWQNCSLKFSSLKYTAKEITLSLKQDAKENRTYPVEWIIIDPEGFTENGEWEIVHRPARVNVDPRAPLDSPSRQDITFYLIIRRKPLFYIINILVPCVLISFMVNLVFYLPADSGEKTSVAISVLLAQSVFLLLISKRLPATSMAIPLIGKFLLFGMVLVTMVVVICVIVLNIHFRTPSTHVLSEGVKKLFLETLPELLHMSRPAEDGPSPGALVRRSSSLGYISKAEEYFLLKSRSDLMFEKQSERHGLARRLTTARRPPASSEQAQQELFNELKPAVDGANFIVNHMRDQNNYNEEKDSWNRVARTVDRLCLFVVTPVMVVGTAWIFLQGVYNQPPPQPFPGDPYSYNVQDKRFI
Neuronal acetylcholine receptor subunit alpha-7 (Mus musculus), sequence (P49582 whole entry): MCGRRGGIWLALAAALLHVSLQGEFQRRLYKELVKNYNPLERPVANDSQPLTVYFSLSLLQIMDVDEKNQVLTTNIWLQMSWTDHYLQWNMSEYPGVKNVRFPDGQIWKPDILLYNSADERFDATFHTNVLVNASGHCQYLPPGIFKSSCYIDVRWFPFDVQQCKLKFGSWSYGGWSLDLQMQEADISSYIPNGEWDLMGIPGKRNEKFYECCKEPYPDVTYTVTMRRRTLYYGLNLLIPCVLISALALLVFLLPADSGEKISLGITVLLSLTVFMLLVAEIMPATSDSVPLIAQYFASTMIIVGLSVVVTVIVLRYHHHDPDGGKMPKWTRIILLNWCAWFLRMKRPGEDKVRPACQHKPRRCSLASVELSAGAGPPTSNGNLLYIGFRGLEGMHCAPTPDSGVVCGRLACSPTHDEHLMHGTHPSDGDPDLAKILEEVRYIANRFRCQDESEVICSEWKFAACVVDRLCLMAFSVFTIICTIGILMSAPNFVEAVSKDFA
Neuronal acetylcholine receptor subunit alpha-7 (Mus musculus, UniProt P49582), sequence (P49582 whole entry): as above
Neuronal acetylcholine receptor; alpha4/beta2, sequence (P17787 whole entry): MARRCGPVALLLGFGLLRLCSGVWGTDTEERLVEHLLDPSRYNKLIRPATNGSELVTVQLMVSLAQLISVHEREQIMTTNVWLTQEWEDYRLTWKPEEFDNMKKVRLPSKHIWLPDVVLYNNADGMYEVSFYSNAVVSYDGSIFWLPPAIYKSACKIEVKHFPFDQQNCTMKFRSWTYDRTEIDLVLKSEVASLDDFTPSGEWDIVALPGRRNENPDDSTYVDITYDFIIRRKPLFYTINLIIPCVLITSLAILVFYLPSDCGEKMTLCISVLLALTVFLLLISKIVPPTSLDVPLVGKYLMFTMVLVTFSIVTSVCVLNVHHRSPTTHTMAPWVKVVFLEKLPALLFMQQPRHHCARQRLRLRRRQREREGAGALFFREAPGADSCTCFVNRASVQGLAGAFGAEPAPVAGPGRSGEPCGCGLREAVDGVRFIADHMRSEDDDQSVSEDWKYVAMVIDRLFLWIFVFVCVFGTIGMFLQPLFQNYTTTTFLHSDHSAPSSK
Neuronal acetylcholine receptor; alpha4/beta2, sequence (P43681 whole entry): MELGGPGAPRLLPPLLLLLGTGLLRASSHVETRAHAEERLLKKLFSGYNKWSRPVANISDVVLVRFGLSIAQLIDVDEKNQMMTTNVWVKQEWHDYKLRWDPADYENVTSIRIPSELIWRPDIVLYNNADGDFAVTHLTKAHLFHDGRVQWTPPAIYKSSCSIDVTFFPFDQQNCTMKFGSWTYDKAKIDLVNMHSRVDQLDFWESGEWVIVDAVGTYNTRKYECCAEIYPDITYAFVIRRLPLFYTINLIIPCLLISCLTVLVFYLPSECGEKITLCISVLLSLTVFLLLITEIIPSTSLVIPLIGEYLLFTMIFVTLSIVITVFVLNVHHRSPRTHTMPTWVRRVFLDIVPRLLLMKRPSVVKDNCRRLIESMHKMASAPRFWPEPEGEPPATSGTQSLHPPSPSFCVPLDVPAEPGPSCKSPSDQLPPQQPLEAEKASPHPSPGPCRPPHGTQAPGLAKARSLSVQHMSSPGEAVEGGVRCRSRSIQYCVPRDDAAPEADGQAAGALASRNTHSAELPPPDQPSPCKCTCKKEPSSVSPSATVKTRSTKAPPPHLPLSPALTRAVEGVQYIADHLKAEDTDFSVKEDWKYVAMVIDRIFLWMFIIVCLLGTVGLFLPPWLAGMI
Neuronal acetylcholine receptor subunit alpha-7 (Homo sapiens, UniProt P36544), sequence (P36544 whole entry): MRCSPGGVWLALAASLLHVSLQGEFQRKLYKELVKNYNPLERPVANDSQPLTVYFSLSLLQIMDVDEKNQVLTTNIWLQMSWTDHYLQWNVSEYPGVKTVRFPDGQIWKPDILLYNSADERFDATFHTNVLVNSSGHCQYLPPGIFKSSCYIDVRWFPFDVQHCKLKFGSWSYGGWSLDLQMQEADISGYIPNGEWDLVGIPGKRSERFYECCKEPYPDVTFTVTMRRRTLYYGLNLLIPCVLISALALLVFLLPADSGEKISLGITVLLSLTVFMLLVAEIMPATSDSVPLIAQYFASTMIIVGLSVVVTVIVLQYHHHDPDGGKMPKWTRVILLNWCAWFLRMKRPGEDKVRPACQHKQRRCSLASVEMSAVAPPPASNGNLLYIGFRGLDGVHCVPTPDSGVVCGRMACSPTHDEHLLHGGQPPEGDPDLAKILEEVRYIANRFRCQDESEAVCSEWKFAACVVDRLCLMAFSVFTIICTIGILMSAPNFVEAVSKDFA

Consider `O=C(OC1CN2CCC1CC2)n1ccc2ccccc21` (configuration not stated), for which the EC50 in assay [1] stood at 4.8 µM. The Efficacy in assay [2] was 17%. The Ki in assay [3] worked out at 0.01 µM; in assay [4] it was 14 µM; in assay [5], 0.0088 µM.
In assay [1], `C[N+]1(C)C2CCC1CC(OC(=O)c1c[nH]c3ccccc13)C2` (configuration not stated) gave an EC50 of 0.28 µM. This molecule also came in with an Efficacy in assay [2] of 13%. Further, the Ki amounted to 0.0072 µM in assay [3], 3 µM in assay [6], 7.8 µM in assay [4] and 0.0064 µM in assay [5].
Turning to `Cc1nccn1CC1CCc2c(c3ccccc3n2C)C1=O` (configuration not stated) [ONDANSETRON], the Ki was 46 µM in assay [4] and over 3 µM in assay [5].
Take `CN1C2CCCC1CC(NC(=O)c1nn(C)c3ccccc13)C2` (configuration not stated) [GRANISETRON]: the Ki in assay [4] was 38 µM; in assay [5] it was over 10 µM.
Take `CN1[C@@H]2CC[C@H]1C[C@@H](OC(=O)c1c[nH]c3ccccc13)C2` [TROPISETRON]: the results for the inhibition constant Ki in assay [6] and in assay [4] were 27 µM and 55 µM, respectively.
`CC(=O)OCC[N+](C)(C)C` showed an Efficacy in assay [2] of 100%.
`CN1CCC[C@H]1c1cccnc1` [NICOTINE] showed an Efficacy in assay [2] of 53%. In addition, the Ki in assay [3] was 71 µM; in assay [5] it was 0.48 µM; in assay [7], 5.5 µM.
